pIC50: −log10 of the molar value. Activity calls are given as the source filed them. The rule behind the calls is not given here.
Tested on: P. yoelii liver stage in HepG2-A16-CD81EGFP, imaging
Experiment: exo-erythrocytic parasite development inhibition – imaging, Malaria Box, P. yoelii, HepG2-A16-CD81EGFP, dose response (AID 602156);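 note: infected cells exposed to compound for 48 hours before fixation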

SMILES | pIC50 | IC50
N=c1c2c(n(Cc3ccc(Cl)cc3)c3c1CCC3)CCC2 | 7.04 | –
Fc1ccccc1Nc1nc(NCc2ccccc2)c2ccccc2n1 | 6.16 | –
Cc1ccc(OCC(=O)Nc2cccc(-c3nc4ncccc4o3)c2)cc1C | – | > 10000 nM (inactive)
C[C@@H]1CCC[C@@H](C[C@H]2Cc3cc(O)cc(O)c3C(=O)O2)O1 | 6.95 | –
COc1ccccc1Nc1nc(NCc2ccccc2)c2ccccc2n1 | 7.04 | –
COc1cc(C(=O)Nc2ccc3nc4n(c(=O)c3c2)CCCCC4)cc(OC)c1OC | – | > 10000 nM (inactive)
O=[N+]([O-])c1cccc(C(Nc2nccs2)c2ccc3cccnc3c2O)c1 (stereo unspecified) | 6.45 | –
c1ccc(CNc2nc(Nc3ccccc3)nc3ccccc23)cc1 | 6.82 | –
Cc1ccc(S(=O)(=O)Nc2nc3n(n2)C(c2ccccc2)C=C(c2ccccc2)N3)cc1 (stereo unspecified) | – | > 10000 nM (inactive)
c1ccc(-c2ccc(-c3ccccn3)nc2)nc1 | 7.40 | –
CCOc1ccc2[nH]c(=O)c(CN(CCN(CC)CC)C(=S)NCCCN(CC)CC)cc2c1 | 5.66 | –
COc1ccc(C2CC(=O)C3=C(C2)NC(C)=C(C(=O)OC(C)C)C3c2ccccc2OC)cc1OC (stereo unspecified) | – | > 10000 nM (inactive)
Cc1cc(C(=O)Nc2cnn(Cc3ccc(Cl)cc3Cl)c2)no1 | 6.47 | –
CCCCCCCCn1c(C)[n+](C)c2cc(Cl)c(Cl)cc21 | 6.38 | –
COc1ccc(CN2CCOc3ccc(C(C)(O)CN(C)C)cc3C2)cc1C (stereo unspecified) | 7.17 | –
CCOC(=O)c1cnc2ccc(OC)cc2c1NCc1cccs1 | 6.72 | –
CN1CCN(c2ccc(Nc3c4ccccc4nc4ccccc34)cc2)CC1 | 6.26 | –
O=C(Nc1ccc2oc(-c3cccc4ccccc34)nc2c1)c1ccc([N+](=O)[O-])o1 | 7.14 | –
O=C(Cn1ccc(=NCc2ccccc2)cc1)c1ccc(I)cc1 | 6.08 | –
CCCc1nc2ccc(NC(=O)c3ccccc3F)cc2c(=O)n1Cc1ccc(-c2ccccc2)cc1 | 5.76 | –
Cc1ccc(-c2cc3nc4c(c(=O)n3[nH]2)CCCC4)cc1 | 7.12 | –
Cc1cccc(N2C(N)=NC(N)=NC2(C)C)c1 | 8.37 | –

SMILES | pIC50 | IC50
COc1cc(OC)c(NC(=O)C2c3ccccc3C(=O)N(C)C2c2ccc(OC)c(OC)c2)cc1Cl (stereo unspecified) | – | > 9130 nM (inactive)
CC(C)c1nc(N2CCN(C(=O)Nc3ccccc3)CC2)c(C#N)c2c1COC(C)(C)C2 | 5.99 | –
CC(C)CC(N)C(=O)N1CCn2c(nc(-c3ccccc3)c2Nc2ccc3c(c2)OCO3)C1 (stereo unspecified) | 6.73 | –
CCCCCc1c(C)c(C#N)c2nc3ccccc3n2c1NCCN(CC)CC | 6.15 | –
COc1ccc(C(c2ccc(N(C)C)cc2)c2ccc(N(C)C)cc2)cc1 | – | > 10000 nM (inactive)
COc1cc(C(=O)N2N=C(c3c(-c4ccccc4)c4cc(Br)ccc4[nH]c3=O)CC2c2cccc([N+](=O)[O-])c2)cc(OC)c1OC (stereo unspecified) | 6.36 | –
CC(C)NC(=O)c1cc(NC(=O)c2cccs2)ccc1N1CCc2ccccc2C1 | 7.13 | –
CC(=O)Nc1ccc(-c2nc(-c3ccc(Oc4ccc(-c5[nH]c(-c6ccc(NC(C)=O)cc6)nc5-c5ccccc5)cc4)cc3)c(-c3ccccc3)[nH]2)cc1 | – | > 3730 nM (inactive)
C[C@@H]1C[C@@H]([C@H](O)CC2CC(=O)NC(=O)C2)C(=O)[C@@H](C)C1 | 7.11 | –
CC(C)(C)c1ccc(Oc2ccc(N3C(=O)C4CC=CCC4C3=O)cc2)cc1 (stereo unspecified) | – | > 10000 nM (inactive)
Cc1ccc(-n2c(-c3ccccc3)cc(C=NNC(=O)c3cccc(-n4c(C)ccc4C)c3)c2-c2ccccc2)cc1 | 7.32 | –
CCCCCC[P+](N(CCC)CCC)(N(CCC)CCC)N(CCC)CCC | 7.31 | –
Clc1ccccc1-c1nc([P+](c2ccccc2)(c2ccccc2)c2ccccc2)c(N2CCOCC2)o1 | 7.02 | –
CCOC(=O)c1cn(CC)c2cc(N(C)CCc3ccc(OC)c(OC)c3)c(F)cc2c1=O | 7.38 | –
COC(=O)C1=CNC=C(C(=O)OC)C1c1cc(OC)c(OC)c(OC)c1 | – | > 10000 nM (inactive)
CCNC(=O)C1CCN(c2cccc3c2C(=O)N(C2CCCCCCC2)C3=O)CC1 | 6.57 | –
Cc1cccc(C(=O)NCc2n[nH]c(=S)n2-c2cccc(C(F)(F)F)c2)c1 | – | > 10000 nM (inactive)
COc1ccc2[nH]c(=O)c(CN(C(=S)Nc3ccccc3OC)C3CCCC3)cc2c1 | – | > 9740 nM (inactive)
CCCN(CCC)[P+](CCC)(c1ccc([P+](CCC)(N(CCC)CCC)N(CCC)CCC)cc1)N(CCC)CCC | 6.55 | –
Cc1nc([P+](c2ccccc2)(c2ccccc2)c2ccccc2)c(N2CCCCC2)o1 | 7.08 | –
CCOc1ccc(CN(C(=O)COc2ccc(Cl)cc2)C(C)CCCN(CC)CC)cc1 (stereo unspecified) | 7.69 | –
CCCCc1c(C)[nH]c2c(OC)cccc2c1=O | 6.25 | –

SMILES | pIC50 | IC50
CCSc1ccc2ccccc2[n+]1CC | – | > 10000 nM (inactive)
Cc1c(Cl)cccc1N1C(=O)C2C3c4ccccc4C(c4ccccc43)C2C1=O (stereo unspecified) | – | > 10000 nM (inactive)
Cc1cc(N)c2ccccc2[n+]1CCCCCCCCCC[n+]1c(C)cc(N)c2ccccc21 | 6.25 | –
O=C1C2=C(Nc3ccccc3SC2c2ccco2)c2ccccc21 (stereo unspecified) | 6.95 | –
CN(C)c1oc(-c2ccc(Cl)cc2Cl)nc1[P+](c1ccccc1)(c1ccccc1)c1ccccc1 | 6.89 | –
CCOC(=O)C1=C(C)NC2=C(C(=O)C(C(=O)OCC)C(c3cccc(OC)c3)C2)C1c1cc(OC)c(OC)c(OC)c1 (stereo unspecified) | 6.63 | –
CCN1/C(=C/c2ccc3ccccc3[n+]2CC)Sc2sc3ccccc3c21 | 8.21 | –
Brc1ccc(-c2c[n+]3c(n2-c2ccccc2)SCC3)cc1 | 6.08 | –
Cn1ncnc2c(=O)n(C)c(=O)nc1-2 | 6.99 | –
Oc1cccc2ccc[n+](CC(O)Cn3c4ccccc4c4ccccc43)c12 (stereo unspecified) | 6.51 | –
CCC(C)(C)c1ccc(OCCOCC[n+]2ccccc2)c(C(C)(C)CC)c1 | 7.02 | –
CCOC(=O)CN(N=O)C1=C(N2CC2)C(=O)c2ccccc2C1=O | 6.32 | –
COc1cccc(NC(=O)Cn2c(C)c(C#N)c3ccccc32)c1 | – | > 9960 nM (inactive)
CCOc1ccc(Nc2nc(NCc3ccccc3)c3ccccc3n2)cc1 | 6.32 | –
CCCCNC(=O)C(CC)Sc1nnc(-c2ccc(C)cc2)c(-c2ccc(C)cc2)n1 (stereo unspecified) | 6.54 | –
COc1ccc(NC(=O)COc2ccccc2C(C)C)c(OC)c1 | – | > 10000 nM (inactive)
O=C1C2=C(Nc3ccccc3SC2c2cccs2)c2ccccc21 (stereo unspecified) | 7.04 | –
CC(C)(C)OC(=O)N1CCC(c2c(C(=O)Nc3cccc(C(F)(F)F)c3)cnn2-c2ccc(F)cc2F)CC1 | 5.51 | –
O=C(c1cccc(Cl)c1)N1CCN(c2ccc([N+](=O)[O-])c(NC3CC3)c2)CC1 | 5.49 | –
C1CCC(NP2(NC3CCCCC3)=NP(NC3CCCCC3)(NC3CCCCC3)=NP(NC3CCCCC3)(NC3CCCCC3)=N2)CC1 | 7.73 | –
O=c1c2c([nH]c3ccccc13)CCCC2 | 6.30 | –
Cc1ccc2[nH]c(C)c(Br)c(=O)c2c1 | 6.60 | –

SMILES | pIC50 | IC50
OCCNc1nc(Nc2ccccc2)nc2ccccc12 | 7.32 | –
CCOc1ccc2ncc(S(=O)(=O)c3ccc(OC)cc3)c(N3CCN(C)CC3)c2c1 | 7.97 | –
N#CCSc1nc2ccccc2c2nc(CCc3c[nH]c4ccccc34)nn12 | – | > 10000 nM (inactive)
O=C(Nc1c2ccccc2nc2ccccc12)c1cc(Cl)ccc1O | 6.74 | –
O=C(c1cc2nc(-c3ccccc3)cc(C(F)(F)F)n2n1)N1CCN(Cc2ccccc2)CC1 | – | > 10000 nM (inactive)
CCCCCCOc1ccc(C(C)=NNC2=NCCN2)cc1[N+](=O)[O-] | 6.11 | –
Cc1[nH]c2c(C)cccc2c(=O)c1CC=C(Cl)Cl | 6.77 | –
COc1ccc(C2Sc3ccccc3NC3=C2C(=O)c2ccccc23)cc1 (stereo unspecified) | 6.15 | –
C/C=C/[P+](c1ccccc1)(c1ccccc1)c1ccccc1 | 7.31 | –
O=C(c1ccc([N+](=O)[O-])cc1)c1ccc(Cl)c(Cl)c1 | 5.78 | –
CC(Oc1ccc(Cl)cc1Cl)c1nc(-c2ccc(NC(=O)c3ccco3)cc2)no1 (stereo unspecified) | 6.81 | –
CC1(C)N=C(N)N=C(N)N1c1ccc(Cl)cc1 | 8.59 | –
Cc1ccc2cc(C)c(Nc3ccc(Cl)cc3)nc2c1 | 6.83 | –
CC(=O)N(C1=C(N2CCOCC2)C(=O)c2ccccc2C1=O)c1cccc(Cl)c1 | 6.13 | –
Fc1ccc2nc(Nc3nc(-c4ccccn4)cs3)sc2c1 | 7.36 | –
CC(=O)N(C)C1=C(N2CCOCC2)C(=O)c2ccccc2C1=O | 6.64 | –
CCOC(=O)c1c(NC(C)=O)sc2c1CCN(C(C)C)C2 | 5.52 | –
COc1ccc2nc(C)cc(Nc3ccc(Oc4ccc5ccccc5c4Cl)c(Cl)c3)c2c1 | 6.94 | –
CCOC(=O)C1(CC)CC(C)(C(=O)C[n+]2cccc(Br)c2)OC1=O (stereo unspecified) | – | > 10000 nM (inactive)
CC(C)NCC(O)Cn1c2ccc(Cl)cc2c2cc(Cl)ccc21 (stereo unspecified) | 5.53 | –
C=CC[N+]1(CC#Cc2cccc3ccccc23)CCCCC1 | 6.04 | –
CCCCOc1ccc(N(C(C)=O)C2=C(N3CCOCC3)C(=O)c3ccccc3C2=O)cc1 | 5.75 | –

SMILES | pIC50 | IC50
Cc1cccc(C)c1N(CC(=O)NCc1ccco1)S(C)(=O)=O | – | > 10000 nM (inactive)
Cc1ccc(-c2c[n+]3c(n2-c2ccc(C)cc2)CCCCC3)cc1 | 6.84 | –
CCCC(=O)NC(c1ccc(Cl)cc1)c1ccc2cccnc2c1O (stereo unspecified) | 6.72 | –
Cc1ccnc(Nc2nc(-c3ccccn3)cs2)c1 | 7.02 | –
O=C(Cc1ccccc1)NC(c1ccc(Cl)cc1)c1ccc2cccnc2c1O (stereo unspecified) | 6.72 | –
O=C(C1CC1)N1CCc2cc(Br)cc(S(=O)(=O)N3CCCC3)c21 | – | > 10000 nM (inactive)
CCOC(=O)C1=C(C)NC2=C(C(=O)C(C(=O)OCC)C(c3ccccc3OC)C2)C1c1cc(OC)c(OC)c(OC)c1 (stereo unspecified) | 6.29 | –
CC(=O)Nc1nc(C)c(-c2csc(Nc3ccc(C)cc3)n2)s1 | 5.72 | –
Clc1ncnc2ncn(Cc3ccccc3)c12 | – | > 10000 nM (inactive)
COc1cccc(N2C(N)=NC(N)=NC2(C)C)c1 | 7.53 | –
CCCC1(CCC)NC(=S)N(c2ccc(C)c(C)c2)N1 | – | > 10000 nM (inactive)
c1ccc(CSc2scnc2[P+](c2ccccc2)(c2ccccc2)c2ccccc2)cc1 | 7.16 | –
c1ccc(Nc2ccnc(Nc3ccccc3)n2)cc1 | 5.83 | –
c1ccc2c(NCCc3cnc[nH]3)c3ccccc3nc2c1 | 6.15 | –
COc1ccc2sc(Nc3nc(-c4ccccn4)cs3)nc2c1 | 6.80 | –
O=C(Nc1ccc(C(F)(F)F)cc1)c1ccc(NCCCN2CCCCCC2)c([N+](=O)[O-])c1 | 6.35 | –
O=c1c2c([nH]c3ccccc13)CCCCCCCCCC2 | 7.00 | –
CN(C)c1ccc(-c2n(C)c3ccccc3[n+]2C)cc1 | 6.76 | –

From PubChem BioAssay AID602156 (GNF / Scripps Winzeler lab, 2011)
